Assay results as given in patent publication US6211151A, “Peptides with organo-protective activity, a process for preparation thereof and their use in therapy” (priority 1992, dated 2001).
No end group written: not given here.

What was measured:
female mice = assay: Acute toxicity; type: in vivo; conditions: 8, 25 and 50 μg/kg b.w., i.v.; observed 15 days
Description: Acute toxicity of synthetic peptides was determined in female mice (weight ca. 20 g). Groups of 6 animals were used for each experiment and control.
Peptides Seq.Id.No: 2,3,4 and 6 were applied in a dosage of 8, 25 and 50 μg/kg b.w., i.v. Control group was treated with saline (0.9%, 5.0 ml/kg b.w.).

[1] = test system: NMRI-Hannover female mice; assay: Influence on vitamin A induced malformation; type: in vivo; conditions: peptide alone, 10 μg or 10 ng/kg b.w., i.p., tenth day of pregnancy
Description: 12. Influence on induced malformation
NMRI-Hannover female mice, two months old, 25 g b.w., but not previously exposed to copulation were used in all experiments. The female mice in the estrus phase were mated overnight with well experienced healthy male mice. The mice were sacrified after 20 days of pregnancy.
Vitamin A was applied in a dose of 15700 U/kg b.w., i.m., at tenth day of the pregnancy (0.05 ml/kg b.w.). Peptide Seq.Id.No: 4 was given simultaneously in a dosage of 10 μg or 10 ng/kg b.w.,i.p.
Control: saline 5.0 ml/kg b.w., i.p.
Animals non treated with vitamin A receiving at the same time i.p. saline or peptide 4 in the same dosage served as healthy control.

Wistar male rats = assay: Turpentine induced buccal edemas; type: in vivo, rat; conditions: 10 μg/kg b.w., i.p. and i.g., 1 hour before turpentine; measured 24 hours after induction
Description: 3. Turpentine induced buccal edemas
Wistar male rats (180-240 g), N=10 in each group. Turpentine was given intramucosally 0.02 ml/rat. Control: 0.9% saline intramucosally (0.02 ml/rat, 2×). Peptides Seq. Id. No: 2 and 4 were applied in a dose of 10 μg and 10 ng/kg, i.p. and i.g., 1 hour before turpentine. Buccal edemas were measured 24 hours after edema induction. Statistical analysis: Mann-Whitney test. The investigated peptides were effective in a dosage of 10 μg/kg b.w.

[2] = test system: Albino Wistar (male) rats; assay: Gastric ulcer induced by restraint stress; type: in vivo, rat; conditions: 10 μg or 10 ng/kg b.w., i.p. or i.g., 1 hour before 48 hours immobilization; even at 10 ng/kg
Description: 1.) Gastric ulcer induced by restraint stress
Albino Wistar (male) rats (180-200 g), were used in the experiments. All the animals were immobilized in a supine position for 48 hours at room temperature. Immediately thereafter they were sacrified and the lesions measured. The peptides Seq. Id. No: 4, 6 and 2 were applied in dosage of 10 μg or 10 ng/kg b.w., i.p. or i.g. 1 hour before noxious procedure.

Substance	signs of toxicity or death (female mice)	malformation in animals not treated with vitamin A [1]	effect on buccal edemas (Wistar male rats)	protection against restraint stress gastric lesions [2]
EPPPLKPA [Seq. Id. No: 6]	no signs of toxicity or death			
LEPPPLKPADALGV [Seq. Id. No: 4]	no signs of toxicity or death	No malformation		
LEPPPLKPADDALGV [Seq.Id.No: 3]	no signs of toxicity or death			
Seq. Id. No: 2: synthetic peptide of 8 to 15 amino acid residues with BPC-type activity; sequence not printed in this text (GEPPPGKPADDAGLV)	no signs of toxicity or death		effective	strongly protective
